Measurements as given in article PMC6423280, “New Therapeutic Approach for Targeting Hippo Signalling Pathway” (Scientific Reports, 2019).
Peptide text beside a SMILES is read from it.

What was measured:
[1] = parameters: species or system C3H/S-strain mice; conditions: mouse, in vivo
Protocol: Figure 8 NLS18-TEAD has anti-tumoral effect on breast cancer xenograft models. (a) C3H/S-strain mice subcutaneously inoculated with 4 × 10^5 TN60-UNLP cells were intraperitoneally treated with 5 mg/kg of NLS18-TEAD or NLS23-TEAD 5 days per week for 4 weeks. Control mice received NaCl. Tumor growth was monitored each other day. The average tumor volume of each group (8 mice per group) is shown (p < 0.018). (b) The weight of the animals and the organs upon 30 days of treatment with the peptides NLS18-TEAD or NLS23-TEAD is shown. Control non-treated mice are also shown. p and t statistic values are shown. […]

[2] = Peptide integrity in human serum (resistance to proteases degradation); assay type: in vitro ADME; conditions: human serum 250 μl, 37 °C, different times, upon 6 h; MALDI-TOF MS; triplicate
Protocol: Figure 7 Stability of the new generated peptides in human serum. Peptides were incubated at 37 °C in human serum for different periods of time and their integrity (percentage of intact peptide) was analyzed by mass spectrometry (MS). Every measurement was performed in triplicate. Standard deviation is shown.
Peptides were incubated at 37 °C in 250 μl of human serum for several times. Samples were collected and peptide degradation stopped by freezing. Peptides were extracted from samples using the Proteo Miner Protein Enrichment System (Bio-Rad, California, USA). Percentage of intact peptide was estimated by mass spectrometry (MS) using MALDI-TOFF (Brucker Autoflex II, Massachusetts, USA) following their protocols. Measurements were performed in triplicates. MS data were analyzed using appropriated software (Clinprot tools, FLEx analysis, Brucker, Massachusetts, USA) as previously described[8],[9].

| Clinical symptoms in the injected animals compared to control non-treated animals [1] | Stability to proteases degradation in human serum (percentage of intact peptide) [2] | SMILES |
| --- | --- | --- |
| did not detected clinical symptoms | – | CC(C)C[C@H](NC(=O)[C@H](CCCCN)NC(=O)[C@H](CCCCN)NC(=O)[C@H](CCCCN)NC(=O)[C@H](CCCCN)NC(=O)[C@@H]1CCCN1C(=O)[C@H](CCCCN)NC(=O)[C@H](CCCCN)NC(=O)[C@H](CCCCN)NC(=O)[C@H](Cc1c[nH]c2ccccc12)NC(=O)[C@H](CCCCN)NC(=O)[C@H](CCCCN)NC(=O)[C@H](Cc1c[nH]c2ccccc12)NC(=O)[C@H](CCCCN)NC(=O)[C@H](CCCCN)NC(=O)[C@H](CCCCN)NC(=O)[C@H](CCCCN)NC(=O)[C@H](CCCCN)NC(=O)[C@H](CCCNC(=N)N)NC(=O)[C@H](CCCCN)NC(=O)[C@@H](N)CCCNC(=N)N)C(=O)N[C@@H](CC(=O)O)C(=O)N[C@@H](CCCNC(=N)N)C(=O)N[C@@H](CC(C)C)C(=O)N[C@@H](CCC(N)=O)C(=O)N[C@@H](CC(C)C)C(=O)N[C@H](C(=O)N[C@@H](CCC(=O)O)C(=O)N[C@@H](Cc1ccccc1)C(=O)N[C@@H](CO)C(=O)N[C@@H](C)C(=O)N[C@@H](Cc1ccccc1)C(=O)N[C@H](C(=O)N[C@@H](CCC(=O)O)C(=O)N1CCC[C@H]1C(=O)N1CCC[C@H]1C(=O)N[C@@H](CC(=O)O)C(=O)N[C@@H](C)C(=O)N[C@H](C(=O)N[C@@H](CC(=O)O)C(=O)O)C(C)C)C(C)C)C(C)C [NLS23-TEAD] (H-RKRKKKKKWKKWKKKPKKKKLDRLQLVEFSAFVEPPDAVD-OH) |
| did not detected clinical symptoms | constant stability | CC(C)C[C@H](NC(=O)[C@H](CCCCN)NC(=O)[C@H](CCCCN)NC(=O)[C@H](CCCCN)NC(=O)[C@H](CCCCN)NC(=O)[C@@H]1CCCN1C(=O)[C@H](Cc1c[nH]c2ccccc12)NC(=O)[C@H](CCCCN)NC(=O)[C@H](CCCCN)NC(=O)[C@H](Cc1c[nH]c2ccccc12)NC(=O)[C@H](CCCCN)NC(=O)[C@H](CCCCN)NC(=O)[C@H](CCCCN)NC(=O)[C@H](CCCCN)NC(=O)[C@H](CCCCN)NC(=O)[C@H](CCCNC(=N)N)NC(=O)[C@H](CCCCN)NC(=O)[C@@H](N)CCCNC(=N)N)C(=O)N[C@@H](CC(=O)O)C(=O)N[C@@H](CCCNC(=N)N)C(=O)N[C@@H](CC(C)C)C(=O)N[C@@H](CCC(N)=O)C(=O)N[C@@H](CC(C)C)C(=O)N[C@H](C(=O)N[C@@H](CCC(=O)O)C(=O)N[C@@H](Cc1ccccc1)C(=O)N[C@@H](CO)C(=O)N[C@@H](C)C(=O)N[C@@H](Cc1ccccc1)C(=O)N[C@H](C(=O)N[C@@H](CCC(=O)O)C(=O)N1CCC[C@H]1C(=O)N1CCC[C@H]1C(=O)N[C@@H](CC(=O)O)C(=O)N[C@@H](C)C(=O)N[C@H](C(=O)N[C@@H](CC(=O)O)C(=O)O)C(C)C)C(C)C)C(C)C [NLS18-TEAD] (H-RKRKKKKKWKKWPKKKKLDRLQLVEFSAFVEPPDAVD-OH) |
